Experiments:
[1] = target: T1, human sphingosine-1-phosphate receptor 1 (S1P1) (Homo sapiens (Human), UniProt P21453); test: Inhibition of cAMP production (HTRF cAMP HiRange), S1P1 CHO-K1 cells; assay type: cell-based; settings: for Emax: CHO-K1, efficacy (SPAN) normalized to fingolimod, read-out: hS1P1 cAMP SPAN; for hS1P1 cAMP pEC50 / EC50: inhibition of cAMP production, S1P1 CHO-K1 cells; for EC50: read-out: hS1P1 cAMP pEC50 (converted)
Summary of the method: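 CHO-K1 cells stably co-expressing human S1P1 (C-terminal Prolink tag) and EA-β-arrestin2 were grown in AssayComplete Media 6 at 37° C. and 5% CO2, plated, and incubated overnight. Agonist-driven inhibition of intracellular cAMP was read by TR-FRET with the HTRF cAMP HiRange kit on a PheraStar reader. Potency is pEC50, and efficacy (SPAN) is normalized to fingolimod.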
Target sequence in this assay (P21453 whole entry, looked up): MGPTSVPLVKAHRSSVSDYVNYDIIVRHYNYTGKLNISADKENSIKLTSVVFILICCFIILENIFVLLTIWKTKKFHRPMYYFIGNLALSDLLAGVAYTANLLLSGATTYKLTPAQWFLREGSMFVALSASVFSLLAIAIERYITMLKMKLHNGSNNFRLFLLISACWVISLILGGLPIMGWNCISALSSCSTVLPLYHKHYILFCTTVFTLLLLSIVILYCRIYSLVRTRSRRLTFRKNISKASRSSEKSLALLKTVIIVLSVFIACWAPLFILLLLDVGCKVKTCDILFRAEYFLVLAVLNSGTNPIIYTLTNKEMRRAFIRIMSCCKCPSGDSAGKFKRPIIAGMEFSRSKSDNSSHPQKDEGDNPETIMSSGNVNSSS

[2] = target: T1, human sphingosine-1-phosphate receptor 1 (S1P1); test: β-Arrestin2 recruitment assay (PathHunter), S1P1 CHO-K1 cells; assay type: cell-based; settings: for Emax: CHO-K1, efficacy (SPAN) normalized to fingolimod, read-out: hS1P1 B-arrestin2 SPAN; for hS1P1 B-arrestin2 pEC50 / EC50: β-arrestin2 recruitment, S1P1 CHO-K1 cells; for EC50: read-out: hS1P1 B-arrestin2 pEC50 (converted)
Summary of the method: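 Enzyme-fragment complementation read-out: agonist-driven β-arrestin2 binding to ProLink-tagged human S1P1 in stable CHO-K1 cells restores β-galactosidase, measured 1 h at room temperature after a 60 min 37° C. compound incubation. Potency as pEC50, efficacy relative to fingolimod (SPAN).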
Target sequence in this assay (P21453 whole entry, looked up): as above
Target sequence in this assay (P32121 whole entry partner, looked up): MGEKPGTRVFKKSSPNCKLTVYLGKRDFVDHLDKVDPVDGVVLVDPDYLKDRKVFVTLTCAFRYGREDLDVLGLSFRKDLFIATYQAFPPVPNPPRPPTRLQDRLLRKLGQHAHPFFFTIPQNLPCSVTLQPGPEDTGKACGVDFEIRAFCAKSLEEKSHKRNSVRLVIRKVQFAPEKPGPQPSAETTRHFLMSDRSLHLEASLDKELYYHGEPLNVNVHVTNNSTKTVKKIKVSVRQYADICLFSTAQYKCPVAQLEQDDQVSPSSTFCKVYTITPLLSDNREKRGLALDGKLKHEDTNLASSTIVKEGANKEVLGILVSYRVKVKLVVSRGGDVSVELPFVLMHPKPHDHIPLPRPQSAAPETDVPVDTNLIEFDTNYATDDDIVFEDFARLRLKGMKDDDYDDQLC

Emax [1] | hS1P1 cAMP pEC50 [1] | Emax [2] | hS1P1 B-arrestin2 pEC50 [2] | EC50 [1] | EC50 [2] | SMILES
> 75% | >6.5 | > 75% | >5 | – | – | N#Cc1cc(-c2nnc(-c3ccc4[nH]cnc4c3)o2)ccc1NCC1CC1 [Compound 357, 5-[5-(1H-1,3-benzodiazol-5-yl)-1,3,4-oxadiazol-2-yl]-2-[(cyclopropylmethyl)amino]benzonitrile]
– | <6.5 | – | <5 | – | – | Cc1nc(-c2ccccc2)oc1-c1cnc2c(c1)CC(=O)N2 [Compound 360, 5-(4-methyl-2-phenyl-1,3-oxazol-5-yl)-1H,2H,3H-pyrrolo[2,3-b]pyridin-2-one]
– | <6.5 | – | <5 | – | – | Cc1ccccc1-c1noc(-c2ccc3scnc3c2)n1 [Compound 362, 5-[3-(2-methylphenyl)-1,2,4-oxadiazol-5-yl]-1,3-benzothiazole]
– | <6.5 | – | <5 | – | – | COc1ccc(-c2nsc(-c3ccc4[nH]ccc4c3)n2)cc1 [Compound 363, 5-[3-(4-methoxyphenyl)-1,2,4-thiadiazol-5-yl]-1H-indole]
– | <6.5 | – | <5 | – | – | COc1cccc(-c2nc(-c3ccc4[nH]ccc4c3)ns2)c1 [Compound 364, 5-[5-(3-methoxyphenyl)-1,2,4-thiadiazol-3-yl]-1H-indole]
– | <6.5 | – | >5 | – | – | Cc1ccccc1-c1noc(-c2ccc3c(c2)CCC(=O)N3)n1 [Compound 365, 6-[3-(2-methylphenyl)-1,2,4-oxadiazol-5-yl]-1,2,3,4-tetrahydroquinolin-2-one]
– | <6.5 | – | <5 | – | – | COc1cccc(-c2nc(-c3ccc4c(ccn4C(C)C)c3)ns2)c1 [Compound 366, 5-[5-(3-methoxyphenyl)-1,2,4-thiadiazol-3-yl]-1-(propan-2-yl)-1H-indole]
– | <6.5 | – | <5 | – | – | Cc1ccccc1-c1noc(-c2ccc3c(c2)CCC(=O)N3C)n1 [Compound 367, 1-methyl-6-[3-(2-methylphenyl)-1,2,4-oxadiazol-5-yl]-1,2,3,4-tetrahydroquinolin-2-one]
– | <6.5 | – | <5 | – | – | COc1ccccc1-c1noc(-c2ccc3[nH]ccc3c2)n1 [Compound 368, 5-(1H-indol-5-yl)-3-(2-methoxyphenyl)-1,2,4-oxadiazole]
– | <6.5 | – | <5 | – | – | COc1ccccc1-c1noc(-c2ccc3[nH]cnc3c2)n1 [Compound 369, 5-(1H-benzo[d]imidazol-5-yl)-3-(2-methoxyphenyl)-1,2,4-oxadiazole]
– | >6.5 | – | >5 | – | – | COc1ccccc1-c1noc(-c2ccc3c(cnn3C(C)C)c2)n1 [Compound 370, 5-(1-isopropyl-1H-indazol-5-yl)-3-(2-methoxyphenyl)-1,2,4-oxadiazole]
– | <6.5 | – | <5 | – | – | COc1ccccc1-c1noc(-c2ccc3[nH]ncc3c2)n1 [Compound 371, 5-(1H-indazol-5-yl)-3-(2-methoxyphenyl)-1,2,4-oxadiazole]
– | >6.5 | – | >5 | – | – | COc1ccccc1-c1noc(-c2ccc3c(ccn3C(C)C)c2)n1 [Compound 372, 5-(1-isopropyl-1H-indol-5-yl)-3-(2-methoxyphenyl)-1,2,4-oxadiazole]
– | <6.5 | – | <5 | – | – | COc1ccccc1-c1noc(-c2ccc3c(c2)ncn3C(C)C)n1 [Compound 373, 5-(1-isopropyl-1H-benzo[d]imidazol-5-yl)-3-(2-methoxyphenyl)-1,2,4-oxadiazole]
– | <6.5 | – | <5 | – | – | CC(C)n1ccc2cc(-c3nc(-c4ccccc4F)ns3)ccc21 [Compound 374, 5-[3-(2-fluorophenyl)-1,2,4-thiadiazol-5-yl]-1-(propan-2-yl)-1H-indole]
– | >6.5 | – | >5 | – | – | COc1ccccc1-c1nc(-c2ccc3c(ccn3C(C)C)c2)ns1 [Compound 375, 5-[5-(2-methoxyphenyl)-1,2,4-thiadiazol-3-yl]-1-(propan-2-yl)-1H-indole]
– | <6.5 | – | <5 | – | – | CN1C(=O)Cc2cc(-c3nc(-c4cccnc4)no3)ccc21 [Compound 377, 1-methyl-5-[3-(pyridin-3-yl)-1,2,4-oxadiazol-5-yl]-2,3-dihydro-1H-indol-2-one]
< 75% | – | < 75% | – | > 0.316 µM | > 10 µM | COC(=O)C12C3C4C1C1C2C3C41c1nc(-c2ccc3c(c2)nnn3C(C)C)no1 (centres unmarked) [Compound 378]

Emax [1] | hS1P1 cAMP pEC50 [1] | Emax [2] | hS1P1 B-arrestin2 pEC50 [2] | EC50 [1] | EC50 [2] | SMILES
< 75% | – | < 75% | – | > 0.316 µM | > 10 µM | CC(C)n1nnc2cc(-c3noc(C45C6C7C4C4C5C6C74C(=O)O)n3)ccc21 (centres unmarked) [Compound 379]
– | <6.5 | – | <5 | – | – | CC(C)n1ccc2cc(-c3nsc(-c4ccccc4F)n3)ccc21 [Compound 380, 5-[5-(2-fluorophenyl)-1,2,4-thiadiazol-3-yl]-1-(propan-2-yl)-1H-indole]
– | <6.5 | – | >5 | – | – | Cc1ccccc1-c1nsc(-c2ccc3c(ccn3C(C)C)c2)n1 [Compound 381, 5-[3-(2-methylphenyl)-1,2,4-thiadiazol-5-yl]-1-(propan-2-yl)-1H-indole]
– | >6.5 | – | >5 | – | – | Cc1ccccc1-c1noc(-c2cnc3c(c2)nnn3C(C)C)n1 [Compound 382, 3-(2-methylphenyl)-5-[3-(propan-2-yl)-3H-[1,2,3]triazolo[4,5-b]pyridin-6-yl]-1,2,4-oxadiazole]
– | >6.5 | – | >5 | – | – | COc1ccccc1-c1noc(-c2cnc3c(c2)nnn3C(C)C)n1 [Compound 383, 3-(2-methoxyphenyl)-5-[3-(propan-2-yl)-3H-[1,2,3]triazolo[4,5-b]pyridin-6-yl]-1,2,4-oxadiazole]
< 75% | <6.5 | > 75% | <5 | – | – | COc1cccc(-c2coc(-c3ccc4c(c3)nnn4C(C)C)n2)c1 [Compound 385, 5-[4-(3-methoxyphenyl)-1,3-oxazol-2-yl]-1-(propan-2-yl)-1H-1,2,3-benzotriazole]
– | <6.5 | – | <5 | – | – | O=C1CCc2cc(-c3nc(-c4cccnc4)no3)ccc2N1 [Compound 386, 6-[3-(pyridin-3-yl)-1,2,4-oxadiazol-5-yl]-1,2,3,4-tetrahydroquinolin-2-one]
– | <6.5 | – | >5 | – | – | CC(C)n1ccc2cc(-c3noc(-c4ccccc4F)n3)ccc21 [Compound 387, 5-(2-fluorophenyl)-3-(1-isopropyl-1H-indol-5-yl)-1,2,4-oxadiazole]
– | >6.5 | – | >5 | – | – | CC(C)n1ccc2cc(-c3noc(-c4ccccc4Br)n3)ccc21 [Compound 388, 5-(2-bromophenyl)-3-(1-isopropyl-1H-indol-5-yl)-1,2,4-oxadiazole]
– | >6.5 | – | >5 | – | – | Cc1ccccc1-c1nc(-c2ccc3c(ccn3C(C)C)c2)no1 [Compound 389, 3-(1-isopropyl-1H-indol-5-yl)-5-(o-tolyl)-1,2,4-oxadiazole]
– | >6.5 | – | >5 | – | – | CC(C)n1ccc2cc(-c3noc(-c4ccccc4C(F)(F)F)n3)ccc21 [Compound 390, 3-(1-isopropyl-1H-indol-5-yl)-5-(2-(trifluoromethyl)phenyl)-1,2,4-oxadiazole]
– | <6.5 | – | <5 | – | – | COc1cccc(-c2nc(-c3ccc4c(ccn4C(C)C)c3)no2)c1 [Compound 392, 3-(1-isopropyl-1H-indol-5-yl)-5-(3-methoxyphenyl)-1,2,4-oxadiazole]
– | <6.5 | – | <5 | – | – | COc1ccc(-c2nc(-c3ccc4c(ccn4C(C)C)c3)no2)cc1 [Compound 393, 3-(1-isopropyl-1H-indol-5-yl)-5-(4-methoxyphenyl)-1,2,4-oxadiazole]
– | <6.5 | – | >5 | – | – | CC(C)n1ccc2cc(-c3noc(-c4cccc(F)c4)n3)ccc21 [Compound 394, 5-(3-fluorophenyl)-3-(1-isopropyl-1H-indol-5-yl)-1,2,4-oxadiazole]
– | >6.5 | – | >5 | – | – | CC(C)n1ccc2cc(-c3noc(-c4ccncc4)n3)ccc21 [Compound 395, 3-(1-isopropyl-1H-indol-5-yl)-5-(pyridin-4-yl)-1,2,4-oxadiazole]
– | <6.5 | – | <5 | – | – | CC(C)n1ccc2cc(-c3noc(-c4cccnc4)n3)ccc21 [Compound 396, 3-(1-isopropyl-1H-indol-5-yl)-5-(pyridin-3-yl)-1,2,4-oxadiazole]
– | <6.5 | – | <5 | – | – | CC(C)n1ccc2cc(-c3noc(-c4ccccn4)n3)ccc21 [Compound 397, 3-(1-isopropyl-1H-indol-5-yl)-5-(pyridin-2-yl)-1,2,4-oxadiazole]
– | >6.5 | – | >5 | – | – | CC(C)n1ccc2cc(-c3noc(-c4ccncc4F)n3)ccc21 [Compound 399, 5-(3-fluoropyridin-4-yl)-3-(1-isopropyl-1H-indol-5-yl)-1,2,4-oxadiazole]

— US11912693B2, “Compounds for modulating S1P1 activity and methods of using the same” (TREVENA, INC., priority 2017, dated 2024)
